Source: patent publication US20260315611A1, “LINKER COMPOUNDS AND LIGAND-DRUG CONJUGATES, PREPARATION METHODS AND USES THEREOF” (Biocytogen Pharmaceuticals (Beijing) Co., Ltd., priority 2023, published 2026)

How the values were obtained:
A-431 = assay: in vitro killing activity; type: cell-based, Human; details: 120 time of incubation
Description: (§1) Different concentrations of compounds CPT-1, CPT-2, CPT-3, CPT-4, Dxd (MedChem Express, Cat #: HY-13631D) and SN38 (MedChem Express, Cat #: HY-13704) were used to treat different human tumor cell lines, mice tumor cell lines, rat tumor cell lines or dog tumor cell lines cultured in a cell culture plate, respectively. And the killing activity was detected after 72 h-120 h incubation by IncuCyte (Sartorius AG, IncuCyte® S3) or MicroplateReader.

BT474 = assay: in vitro killing activity; type: cell-based, Human; details: 120 time of incubation
Description: as §1

BxPC-3 = assay: in vitro killing activity; type: cell-based, Human; details: 120 time of incubation
Description: as §1

HCC1954 = assay: in vitro killing activity; type: cell-based, Human; details: 120 time of incubation
Description: as §1

HS-746T = assay: in vitro killing activity; type: cell-based, Human; details: 120 time of incubation
Description: as §1

Hela = assay: in vitro killing activity; type: cell-based, Human; details: 120 h incubation
Description: as §1

HuH-7 = assay: in vitro killing activity; type: cell-based, Human; details: 120 h incubation
Description: as §1

LOVO = assay: in vitro killing activity; type: cell-based, Human; details: 120 h incubation
Description: as §1

NCI-H1781 = assay: in vitro killing activity; type: cell-based, Human; details: 120 time of incubation
Description: as §1

NCI-H1975 = assay: in vitro killing activity; type: cell-based, Human; details: 120 time of incubation
Description: as §1

NCI-H2030 = assay: in vitro killing activity; type: cell-based, Human; details: 120 time of incubation
Description: as §1

NCI-H226 = assay: in vitro killing activity; type: cell-based, Human; details: 120 h incubation
Description: as §1

NCI-H69 = assay: in vitro killing activity; type: cell-based, Human; details: 120 time of incubation
Description: as §1

NCI-N87 = assay: in vitro killing activity; type: cell-based, Human; details: 120 time of incubation
Description: as §1

OVKATE = assay: in vitro killing activity; type: cell-based, Human; details: 120 time of incubation
Description: as §1

PC-3 = assay: in vitro killing activity; type: cell-based, Human; details: 120 time of incubation
Description: as §1

Panc 02.03 = assay: in vitro killing activity; type: cell-based, Human; details: 120 time of incubation
Description: as §1

SKOV-3 = assay: in vitro killing activity; type: cell-based, Human; details: 120 time of incubation
Description: as §1

SW156 = assay: in vitro killing activity; type: cell-based, Human; details: 120 time of incubation
Description: as §1

SW620 = assay: in vitro killing activity; type: cell-based, Human; details: 120 h incubation
Description: as §1

U-2-OS = assay: in vitro killing activity; type: cell-based, Human; details: 120 time of incubation
Description: as §1

CMT-U27 = assay: in vitro killing activity; type: cell-based, Dog; details: 120 time of incubation
Description: as §1

D17 = assay: in vitro killing activity; type: cell-based, Dog; details: 120 time of incubation
Description: as §1

DCOL1 (S+L−) = assay: in vitro killing activity; type: cell-based, Dog; details: 120 time of incubation
Description: as §1

MP-0094-2 = assay: in vitro killing activity; type: cell-based, Dog; details: 120 time of incubation
Description: as §1

MP-0094-3 = assay: in vitro killing activity; type: cell-based, Dog; details: 120 time of incubation
Description: as §1

MP-1044-1 = assay: in vitro killing activity; type: cell-based, Dog; details: 72 time of incubation
Description: as §1

MP-1092-1 = assay: in vitro killing activity; type: cell-based, Dog; details: 120 time of incubation
Description: as §1

B16F10 = assay: in vitro killing activity; type: cell-based, Mice; details: 75 time of incubation
Description: as §1

CT26 = assay: in vitro killing activity; type: cell-based, Mice; details: 96 time of incubation
Description: as §1

MC38 = assay: in vitro killing activity; type: cell-based, Mice; details: 120 time of incubation
Description: as §1

L6 = assay: in vitro killing activity; type: cell-based, Rat; details: 120 h incubation
Description: as §1

PC12 = assay: in vitro killing activity; type: cell-based, Rat; details: 120 time of incubation
Description: as §1

Pgp = details: cited from earlier work
A431 cells = assay: anti-tumor activity in A431 xenograft model; type: in vivo, A431 xenograft in B-NDG mice; details: 10 mg/kg i.v. BIW x4
Description: (§2) The lengths of the long axis and the short axis of the tumor were measured and the volume of the tumor was calculated as 0.5×(long axis)×(short axis)2. […] Ti is the average tumor volume in the treatment group on day i. T0 is the average tumor volume in the treatment group on day zero. Vi is the average tumor volume in the control group on day i. V0 is the average tumor volume in the control group on day zero. T-test was performed for statistical analysis. […] P<0.05 is a threshold to indicate significant difference. The body weights of the mice were also measured throughout the entire administration period.
The ADCs were tested for their effects on tumor growth in vivo in a xenograft model of epidermoid carcinoma. Specifically, about 1×10^6 A431 cells were injected subcutaneously in B-NDG mice. When the tumors in the mice reached a volume of about 200 mm^3, the mice were randomly placed into different groups based on tumor volume. The mice were then injected with PBS, antibody, or ADCs by intravenous (i.v.) administration.

NCI-H292 cells = assay: anti-tumor activity in NCI-H292 xenograft model; type: in vivo, NCI-H292 xenograft in B-NDG mice; details: 10 mg/kg i.v. BIW x2
Description: as §2
The antibody or ADCs were tested for their effects on tumor growth in vivo in a xenograft model of lung cancer. Specifically, about 5×10^6 NCI-H292 cells were injected subcutaneously in B-NDG mice. When the tumors in the mice reached a volume of about 300 mm^3, the mice were randomly placed into different groups based on tumor volume. The mice were then injected with PBS, antibody, or ADCs by intravenous (i.v.) administration.

## CC[C@@]1(O)C(=O)OCc2c1cc1n(c2=O)Cc2c-1nc1cc(F)c(C)c3c1c2[C@@H](NC(=O)CO)CC3 [Dxd, reference compound]
A-431
  IC50: 28.1 nM
BT474
  IC50: 10.9 nM
BxPC-3
  IC50: 1.87 nM
HCC1954
  IC50: 3.31 nM
HS-746T
  IC50: 1.05 nM
Hela
  IC50: 6.69 nM
HuH-7
  IC50: 1.39 nM
LOVO
  IC50: 8.65 nM
NCI-H1781
  IC50: 0.724 nM
NCI-H1975
  IC50: 9.91 nM
NCI-H2030
  IC50: 6.43 nM
NCI-H226
  IC50: 22.9 nM
NCI-H69
  IC50: 0.299 nM
NCI-N87
  IC50: 7.03 nM
OVKATE
  IC50: 12.3 nM
PC-3
  IC50: 6.4 nM
Panc 02.03
  IC50: 3.18 nM
SKOV-3
  IC50: 16.5 nM
SW156
  IC50: 1.84 nM
SW620
  IC50: 3.89 nM
U-2-OS
  IC50: 41.9 nM
CMT-U27
  IC50: 3.37 nM
D17
  IC50: 6.08 nM
DCOL1 (S+L−)
  IC50: 9.05 nM
MP-0094-2
  IC50: 9.67 nM
MP-0094-3
  IC50: 22 nM
MP-1044-1
  IC50: 41.7 nM
MP-1092-1
  IC50: 7.13 nM
B16F10
  IC50: 26.2 nM
CT26
  IC50: 94.2 nM
MC38
  IC50: 38.5 nM
L6
  IC50: 13.8 nM
PC12
  IC50: 9.19 nM
Pgp
  Pgp substrate: Pgp substrates

## CCc1c2c(nc3ccc(O)cc13)-c1cc3c(c(=O)n1C2)COC(=O)[C@]3(O)CC [SN38, reference compound]
Hela
  IC50: 6.61 nM
HuH-7
  IC50: 2.41 nM
LOVO
  IC50: 10.2 nM
NCI-H1975
  IC50: 13.2 nM
NCI-H226
  IC50: 20.4 nM
NCI-N87
  IC50: 7.39 nM
SW620
  IC50: 4.6 nM
L6
  IC50: 20.8 nM
PC12
  IC50: 5.66 nM
Pgp
  Pgp substrate: Pgp substrates

## Sacituzumab govitecan: humanized anti-TROP2 monoclonal antibody-drug conjugate from Immunomedics, Inc
A431 cells
  Tumor volume Day 17: 682 ± 71 mm^3
  Tumor volume Day 31: 1554 ± 144 mm^3
A431 cells; day of grouping (baseline)
  Tumor volume Day 0: 197 ± 6 mm^3
NCI-H292 cells
  Tumor volume Day 21: 428 ± 51 mm^3
  Tumor volume Day 39: 893 ± 62 mm^3
NCI-H292 cells; day of grouping (baseline)
  Tumor volume Day 0: 297 ± 11 mm^3
